Each structure is given as a SMILES string. Like-named read-outs stand apart in the source and are kept apart here.

The test system of experiment [1] is H3K18Ac in HB-CLS-2 cells. Briefly: H3K18AC in-cell western (ICW) assay. It is filed as cell-based. To be noted: H3K18Ac in-cell western; read-out: CREBBP ICW IC50. The essentials:
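HB-CLS-2 cells seeded 16–24 hours before 2 hr compound treatment at 37° C, 5% CO2, then methanol-fixed. H3K18Ac detected with rabbit monoclonal primary (overnight, 4° C) and 800CW anti-rabbit secondary; DRAQ5 stained DNA. Plates imaged at 700 and 800 nm for integrated intensity; IC50 in μM.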

Experiment [2] has as its system 647V cells. As to the kind of experiment: High throughput proliferation (HTP) assay. To be noted: high throughput proliferation, read-out: CREBBP HTP IC50. It is filed as cell-based. The essentials:
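Exponentially growing 647V cells in DMEM with 15% FBS were treated in triplicate with increasing compound concentrations at 37° C, 5% CO2. Viable cell number was read by CellTiter-Glo luminescence on day 7; IC50 in micromolar.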

Experiment [3] deals with T1, CREBBP (1084-1701) (Homo sapiens, UniProt Q92793).
T1 construct: measured in the following biochemical assay using CREBBP (1084-1701); purchased
Briefly: Biochemical assay for CREBBP (1084-1701), SAMDI. To be noted: SAMDI, read-out: CREBBP Biochemistry IC50. In short, it runs like this:
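CREBBP (1084-1701) preincubated with compound 30 min at RT, then substrate mix (biotin-H3 11-25 K14R/K23R peptide, acetyl-CoA) added for 30 min at RT. Reaction stopped with formic acid, neutralised with sodium bicarbonate. Peptide acetylation read by SAMDI mass spectrometry to derive IC50.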

The target of experiment [4] is T2, EP300 (P300(1048-1664)) (Homo sapiens, UniProt Q09472).
T2 construct: P300(1048-1664)
T2 sequence (Q09472 1048-1664): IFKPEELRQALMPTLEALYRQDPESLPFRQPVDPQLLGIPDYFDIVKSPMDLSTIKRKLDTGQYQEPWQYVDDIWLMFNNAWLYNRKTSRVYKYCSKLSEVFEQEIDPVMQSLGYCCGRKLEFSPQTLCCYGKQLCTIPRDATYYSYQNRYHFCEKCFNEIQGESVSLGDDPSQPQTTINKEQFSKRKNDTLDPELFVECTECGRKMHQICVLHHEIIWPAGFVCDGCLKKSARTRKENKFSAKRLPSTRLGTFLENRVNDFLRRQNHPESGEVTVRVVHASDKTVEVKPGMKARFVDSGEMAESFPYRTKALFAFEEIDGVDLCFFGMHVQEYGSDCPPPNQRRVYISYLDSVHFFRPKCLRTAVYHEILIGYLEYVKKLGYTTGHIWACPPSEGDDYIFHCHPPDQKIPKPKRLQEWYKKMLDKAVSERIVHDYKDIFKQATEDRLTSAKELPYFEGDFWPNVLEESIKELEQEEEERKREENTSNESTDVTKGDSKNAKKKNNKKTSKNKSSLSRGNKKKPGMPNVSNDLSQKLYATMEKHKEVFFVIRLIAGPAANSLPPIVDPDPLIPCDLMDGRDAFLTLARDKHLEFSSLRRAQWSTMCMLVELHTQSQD
Briefly: Biochemical assay for EP300, SAMDI. The conditions noted are these: EP300, SAMDI; read-out: EP300 Biochemistry IC50. The text has this: The following example describes materials and methods relating to a biochemical assay for EP300. IC50 values (micromolar (μM)) are summarized in Table 1, Table 2, and Table 3 under the column labeled: “EP300 Biochemistry IC50 (micromolar).”

T1 sequence (Q92793 1084-1701): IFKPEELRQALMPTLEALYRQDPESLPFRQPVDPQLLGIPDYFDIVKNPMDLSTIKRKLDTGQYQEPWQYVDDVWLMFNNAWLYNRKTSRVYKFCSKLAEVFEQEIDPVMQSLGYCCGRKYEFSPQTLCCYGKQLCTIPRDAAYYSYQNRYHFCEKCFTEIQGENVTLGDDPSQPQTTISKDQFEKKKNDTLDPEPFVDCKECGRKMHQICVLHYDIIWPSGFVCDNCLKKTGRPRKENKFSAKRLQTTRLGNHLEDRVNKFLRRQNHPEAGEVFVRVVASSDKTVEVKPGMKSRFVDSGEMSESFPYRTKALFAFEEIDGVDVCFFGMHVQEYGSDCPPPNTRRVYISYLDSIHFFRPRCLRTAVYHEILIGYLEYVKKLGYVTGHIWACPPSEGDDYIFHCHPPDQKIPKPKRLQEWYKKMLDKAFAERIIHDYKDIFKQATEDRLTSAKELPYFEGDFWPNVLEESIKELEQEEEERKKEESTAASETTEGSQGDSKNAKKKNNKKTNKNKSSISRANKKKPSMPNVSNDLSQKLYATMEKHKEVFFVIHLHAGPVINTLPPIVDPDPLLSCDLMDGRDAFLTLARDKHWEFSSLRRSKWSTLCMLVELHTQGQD

As usually defined, the IC50 is the concentration at which inhibition is half-maximal. Consider `CCn1ncc(CN(C)C(=O)c2nc(-c3ccc(OCC(O)CN4CCCC4)c(Cl)c3)nc3ccc(Cl)cc23)c1C` (centres unmarked) [Compound 27], for which the IC50 in experiment [1] stood at 220 nM; in experiment [2] (Homo sapiens, 647-V), 110 nM; in experiment [3] it was 39 nM; in experiment [4] it was 20 nM.
For `CCn1ncc(CN(C)C(=O)c2nc(-c3cc(C)nc(N)c3)nc3ccc(Cl)cc23)c1C` [Compound 28], the 50% inhibitory concentration (IC50) was 220 nM in experiment [1]; 180 nM in experiment [2] (Homo sapiens, 647-V); 29 nM in experiment [3]; 92 nM in experiment [4].
In the same order, the values of `CCn1ncc(CN(C)C(=O)c2cc(-c3ccc(NCCNC)cn3)nc3ccc(Cl)cc23)c1C` [Compound 30] are 230 nM, 310 nM, 56 nM and 12 nM.
For the compound `CCn1ncc(CN(C)C(=O)c2nc(-c3ccc(OCCCNC(C)C)c(C)c3)nc3ccc(Cl)cc23)c1C` [Compound 31], the half-maximal inhibitory concentration (IC50) in experiment [1] was 260 nM; in experiment [2] (Homo sapiens, 647-V) it was 130 nM; in experiment [3] it was 28 nM; in experiment [4], 140 nM.
Turning to `CCn1ncc(CN(C)C(=O)c2nc(-c3ccc(OCCO)cc3Cl)nc3ccc(Cl)cc23)c1C` [Compound 32], the IC50 in experiment [1] amounted to 270 nM; in experiment [2] (Homo sapiens, 647-V), 150 nM; in experiment [3], 150 nM; in experiment [4], 330 nM.
`CCn1ncc(CN(C)C(=O)c2nc(-c3ccc(OCCCNC)cc3C)nc3ccc(Cl)cc23)c1C` [Compound 33]: the IC50 was 270 nM in experiment [1]; 180 nM in experiment [2] (Homo sapiens, 647-V); 68 nM in experiment [3]; 53 nM in experiment [4].
The corresponding values for `CCn1ncc(CN(C)C(=O)c2nc(-c3cc(Cl)cc(NC(=O)NC)c3)nc3ccc(Cl)cc23)c1C` [Compound 34] are 270 nM, 200 nM, 3.2 nM and 3.2 nM.
Consider `CCn1ncc(CN(C)C(=O)c2nc(-c3ccc(OCCNC(C)=O)c(Cl)c3)nc3ccc(Cl)cc23)c1C` [Compound 35], for which the IC50 in experiment [1] stood at 290 nM; in experiment [2] (Homo sapiens, 647-V), 220 nM; in experiment [3], 44 nM; in experiment [4] it was 180 nM.
Regarding `CCc1ncc(CN(C)C(=O)c2nc(-c3cccc(Cl)c3)nc3ccc(Cl)cc23)n1C` [Compound 37], the IC50 in experiment [1] was found to be 300 nM; in experiment [2] (Homo sapiens, 647-V), 290 nM; in experiment [3] it was 3.4 nM; in experiment [4], 6.1 nM.
As for `CCn1ncc(CN(C)C(=O)c2nc(-c3ccc(O[C@@H]4CNC[C@H]4O)cc3Cl)nc3ccc(Cl)cc23)c1C` [Compound 38], the IC50 in experiment [1] came to 330 nM; in experiment [2] (Homo sapiens, 647-V) it was 230 nM; in experiment [3], 34 nM; in experiment [4], 12 nM.
Consider `CCn1ncc(CN(C)C(=O)c2nc(-c3ccc4[nH]c(C)nc4c3)nc3ccc(Cl)cc23)c1C` [Compound 39], for which the IC50 in experiment [1] stood at 340 nM; in experiment [2] (Homo sapiens, 647-V) it was 250 nM; in experiment [3], 650 nM; in experiment [4], 680 nM.
`CCn1ncc(CN(C)C(=O)c2nc(-c3ccc(OCCN4CCCC4)cc3Cl)nc3ccc(Cl)cc23)c1C` [Compound 40]: the IC50 is 350 nM in experiment [1]; 220 nM in experiment [2] (Homo sapiens, 647-V); 110 nM in experiment [3]; 130 nM in experiment [4].
Regarding `CCn1ncc(CN(C)C(=O)c2nc(-c3ccc(OCCO)c(Cl)c3)nc3ccc(Cl)cc23)c1C` [Compound 41], the IC50 in experiment [1] was determined as 370 nM; in experiment [2] (Homo sapiens, 647-V), 160 nM; in experiment [3], 62 nM; in experiment [4] it was 250 nM.
For `CCn1ncc(CN(C)C(=O)c2nc(-c3ccc(OCCCN4CCCCC4)c(C)c3)nc3ccc(Cl)cc23)c1C` [Compound 42], the IC50 in experiment [1] is 380 nM; in experiment [2] (Homo sapiens, 647-V) it was 180 nM; in experiment [3] it was 69 nM; in experiment [4], 88 nM.
Turning to `CCn1ncc(CN(C)C(=O)c2nc(-c3ccc(OCCNC(C)=O)c(C)c3)nc3ccc(Cl)cc23)c1C` [Compound 43], the IC50 in experiment [1] was determined as 380 nM; in experiment [2] (Homo sapiens, 647-V), 460 nM; in experiment [3], 69 nM; in experiment [4], 340 nM.
On to `CCn1ncc(CN(C)C(=O)c2nc(-c3cc(C)c4n[nH]cc4c3)nc3ccc(Cl)cc23)c1C` [Compound 44], for which the IC50 in experiment [1] is 380 nM; in experiment [2] (Homo sapiens, 647-V) it was 270 nM; in experiment [3], 27 nM; in experiment [4] it was 83 nM.
The corresponding values for `CCn1ncc(CN(C)C(=O)c2cc(-c3ccc(OCCO)c(C)n3)nc3ccc(Cl)cc23)c1C` [Compound 45] are 390 nM, 380 nM, 74 nM and 75 nM.
In the same order, the values of `CCn1ncc(CN(C)C(=O)c2nc(-c3ccc(OCCCNC)c(C4CC4)c3)nc3ccc(Cl)cc23)c1C` [Compound 46] are 410 nM, 200 nM, 41 nM and 320 nM.
The corresponding values for `CCn1ncc(CN(C)C(=O)c2cc(-c3cnc[nH]3)nc3ccc(Cl)cc23)c1C` [Compound 48] are 450 nM, 770 nM, 380 nM and 110 nM.
In the case of `CCn1ncc(CN(C)C(=O)c2nc(-c3cc(Cl)cc(NCCCNC)c3)nc3ccc(Cl)cc23)c1C` [Compound 50], the IC50 in experiment [1] worked out at 480 nM; in experiment [2], 150 nM; in experiment [3], 16 nM; in experiment [4] it was 5 nM.
For `CCn1ncc(CN(C)C(=O)c2nc(-c3cc4nc[nH]c4cc3OC)nc3ccc(Cl)cc23)c1C` [Compound 51], the IC50 in experiment [1] was 520 nM; in experiment [2] (Homo sapiens, 647-V), 520 nM; in experiment [3], 570 nM; in experiment [4], 690 nM.
As for `CCn1ncc(CN(C)C(=O)c2nc(-c3ccc(OCCCO)cc3C)nc3ccc(Cl)cc23)c1C` [Compound 53], the IC50 in experiment [1] stood at 570 nM; in experiment [2] (Homo sapiens, 647-V) it was 460 nM; in experiment [3], 130 nM; in experiment [4], 280 nM.
As to `CCn1ncc(CN(C)C(=O)c2nc(-c3ccc(OCCN4CCCC4)c(Cl)c3)nc3ccc(Cl)cc23)c1C` [Compound 54], the IC50 was found to be 570 nM in experiment [1]; 280 nM in experiment [2] (Homo sapiens, 647-V); 63 nM in experiment [3]; 330 nM in experiment [4].
In the case of `CCn1ncc(CN(C)C(=O)c2nc(-c3cc(C)cc(NC4CCNCC4)c3)nc3ccc(Cl)cc23)c1C` [Compound 55], the IC50 in experiment [1] turned out to be 600 nM; in experiment [2] (Homo sapiens, 647-V) it was 240 nM; in experiment [3], 21 nM; in experiment [4], 7 nM.
As to `CCn1ncc(CN(C)C(=O)c2nc(-c3ccc(OCCNC(C)=O)cc3Cl)nc3ccc(Cl)cc23)c1C` [Compound 56], the IC50 in experiment [1] came out at 630 nM; in experiment [2] (Homo sapiens, 647-V), 520 nM; in experiment [3] it was 280 nM; in experiment [4] it was 580 nM.
Regarding `CCn1ncc(CN(C)C(=O)c2nc(-c3ccc(NC4CCOCC4)cn3)nc3ccc(Cl)cc23)c1C` [Compound 58], the half-inhibitory concentration (IC50) in experiment [1] is 670 nM; in experiment [2] (Homo sapiens, 647-V) it was 1400 nM; in experiment [3], 1500 nM; in experiment [4] it was 610 nM.
In the case of `CCn1ncc(CN(C)C(=O)c2nc(-c3cc(Cl)cc(OCCNC)c3)nc3ccc(Cl)cc23)c1C` [Compound 60], the IC50 in experiment [1] stood at 880 nM; in experiment [2] (Homo sapiens, 647-V), 500 nM; in experiment [3], 23 nM; in experiment [4], 11 nM.
Take `CCn1ncc(CN(C)C(=O)c2cc(-c3cccc(N)n3)nc3ccc(Cl)cc23)c1C` [Compound 63]: the half-maximal inhibitory concentration (IC50) in experiment [1] stood at 710 nM; in experiment [2] (Homo sapiens, 647-V), 1500 nM; in experiment [3], 440 nM; in experiment [4], 240 nM.
As for `CCn1ncc(CN(C)C(=O)c2nc(-c3ccc(NC4CCOCC4)c(OC)c3)nc3ccc(Cl)cc23)c1C` [Compound 64], the IC50 in experiment [1] turned out to be 710 nM; in experiment [2] (Homo sapiens, 647-V), 580 nM; in experiment [3], 79 nM; in experiment [4], 300 nM.

Values taken from patent US20220144812A1, “QUINOLINE DERIVATIVES AND THEIR USE FOR THE TREATMENT OF CANCER” (Epizyme, Inc., priority 2019, published 2022).
